In patent US20240246952A1, “SMALL MOLECULE MODULATORS OF GLUCOCEREBROSIDASE ACTIVITY AND USES THEREOF” (Vanqua Bio, Inc., priority 2021, published 2024):

Biological target: T1, GCase (Homo sapiens, UniProt P04062)
T1 construct: endogenous in cells; host or cells: HeLa cells
T1 sequence (P04062 40-536): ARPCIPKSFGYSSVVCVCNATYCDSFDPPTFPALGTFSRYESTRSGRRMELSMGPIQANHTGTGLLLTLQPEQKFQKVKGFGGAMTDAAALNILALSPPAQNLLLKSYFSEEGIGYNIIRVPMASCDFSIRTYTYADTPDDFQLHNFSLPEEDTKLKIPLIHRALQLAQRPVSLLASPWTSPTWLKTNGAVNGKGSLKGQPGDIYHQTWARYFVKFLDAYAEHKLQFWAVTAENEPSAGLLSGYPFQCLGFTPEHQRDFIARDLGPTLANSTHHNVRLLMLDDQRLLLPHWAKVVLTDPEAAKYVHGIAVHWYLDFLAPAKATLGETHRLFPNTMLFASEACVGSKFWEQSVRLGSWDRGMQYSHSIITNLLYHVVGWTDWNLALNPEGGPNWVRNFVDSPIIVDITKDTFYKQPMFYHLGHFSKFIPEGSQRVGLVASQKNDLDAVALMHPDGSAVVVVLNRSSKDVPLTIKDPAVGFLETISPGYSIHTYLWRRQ
Test: activation of GCase in a live cell PFB assay in HELA cells
Type: cell-based
Protocol: Exemplary compounds were evaluated for activation of GCase in a live cell PFB assay in HELA cells (essentially as described in Ysselstein et al., “LRRK2 kinase activity regulates lysosomal glucocerebrosidase in neurons derived from Parkinson's disease patients” Nature Communications (2019) 10:5570).

| SMILES | EC50 [µM] |
| --- | --- |
| O=C(c1ccc2cc[nH]c2c1)N1CCCC(c2nnc(-c3ccccc3C(F)(F)F)s2)C1 (centres unmarked) [Compound 9, (1H-Indol-6-yl)(3-(5-(2-(trifluoromethyl)phenyl)-1,3,4-thiadiazol-2-yl)piperidin-1-yl)methanone] | 10 to 50 |
| Fc1ccccc1-c1nnc(C2CCCN(c3ncc4ccccc4n3)C2)s1 (centres unmarked) [Compound 10, 2-(2-Fluorophenyl)-5-(1-(quinazolin-2-yl)piperidin-3-yl)-1,3,4-thiadiazole] | 10 to 50 |
| c1ccc(-c2nnc(C3CCCN(c4cnc5ccccc5n4)C3)s2)cc1 (centres unmarked) [Compound 11, 2-Phenyl-5-(1-(quinoxalin-2-yl)piperidin-3-yl)-1,3,4-thiadiazole] | 10 to 50 |
| O=C(c1ccc2cc[nH]c2c1)N1CCCC(c2nnc(-c3ccccc3)s2)C1 (centres unmarked) [Compound 12, (1H-Indol-6-yl)(3-(5-phenyl-1,3,4-thiadiazol-2-yl)piperidin-1-yl)methanone] | 10 to 50 |
| FC(F)(F)c1cccc(-c2nnc(C3(F)CCCN(c4cnc5ccccc5n4)C3)s2)n1 (centres unmarked) [Compound 13, 2-(3-Fluoro-3-{5-[6-(trifluoromethyl)pyridin-2-yl]-1,3,4-thiadiazol-2-yl}piperidin-1-yl)quinoxaline] | 10 to 50 |
| c1ccc(-c2nnc(C3CCCN(c4ncc5ccccc5n4)C3)s2)cc1 (centres unmarked) [Compound 14, 2-Phenyl-5-(1-(quinazolin-2-yl)piperidin-3-yl)-1,3,4-thiadiazole] | 10 to 50 |
| CCn1ncc2ncc(N3CCCC(c4nnc(-c5ccccc5)s4)C3)nc21 (centres unmarked) [Compound 15, 2-(1-(1-Ethyl-1H-pyrazolo[3,4-b]pyrazin-6-yl)piperidin-3-yl)-5-phenyl-1,3,4-thiadiazole] | 50 to 100 |
| Cc1nnc(C2CCCN(c3ncc4ccccc4n3)C2)s1 (centres unmarked) [Compound 16, 2-methyl-5-(1-(quinazolin-2-yl)piperidin-3-yl)-1,3,4-thiadiazole] | > 100 |
| O=C(c1ccc2cc[nH]c2c1)N1CCCC(c2nnc(-c3cccnc3C(F)(F)F)s2)C1 (centres unmarked) [Compound 17, (1H-Indol-6-yl)(3-(5-(2-(trifluoromethyl)pyridin-3-yl)-1,3,4-thiadiazol-2-yl)piperidin-1-yl)methanone] | 10 to 50 |
| COc1ncncc1-c1nnc(C2CCCN(c3cnc4ccccc4n3)C2)s1 (centres unmarked) [Compound 18, 2-(4-Methoxypyrimidin-5-yl)-5-(1-(quinoxalin-2-yl)piperidin-3-yl)-1,3,4-thiadiazole] | 10 to 50 |
| FC(F)Cn1ncc2ncc(N3C[C@@H]4[C@H](C3)[C@H]4c3nnc(-c4cccnc4C(F)(F)F)s3)nc21 [Compound 23, 2-((1R,5S,6r)-3-(1-(2,2-Difluoroethyl)-1H-pyrazolo[3,4-b]pyrazin-6-yl)-3-azabicyclo[3.1.0]hexan-6-yl)-5-(2-(trifluoromethyl)pyridin-3-yl)-1,3,4-thiadiazole] | > 100 |
| FC(F)(F)c1cccc(-c2nnc(C3(F)CCCN(c4cnc5cnn(C6COC6)c5n4)C3)s2)n1 (centres unmarked) [Compound 24, 2-(3-fluoro-1-(1-(oxetan-3-yl)-1H-pyrazolo[3,4-b]pyrazin-6-yl)piperidin-3-yl)-5-(6-(trifluoromethyl)pyridin-2-yl)-1,3,4-thiadiazole] | > 100 |
| O=C(c1ccc2ccn(CC3COC3)c2c1)N1CCCC(F)(c2nnc(-c3cccc(C(F)(F)F)n3)s2)C1 (centres unmarked) [Compound 25, (3-Fluoro-3-(5-(6-(trifluoromethyl)pyridin-2-yl)-1,3,4-thiadiazol-2-yl)piperidin-1-yl)(1-(oxetan-3-ylmethyl)-1H-indol-6-yl)methanone] | 10 to 50 |
| O=C(c1ccc2ccn(C3COC3)c2c1)N1CCCC(F)(c2nnc(-c3cccc(C(F)(F)F)n3)s2)C1 (centres unmarked) [Compound 26, (3-Fluoro-3-(5-(6-(trifluoromethyl)pyridin-2-yl)-1,3,4-thiadiazol-2-yl)piperidin-1-yl)(1-(oxetan-3-yl)-1H-indol-6-yl)methanone] | 10 to 50 |
| FC(F)Cn1ncc2ncc(N3C[C@@H]4[C@H](C3)[C@H]4c3nnc(-c4ccccc4)s3)nc21 [Compound 28, 2-((1R,5S,6R)-3-(1-(2,2-Difluoroethyl)-1H-pyrazolo[3,4-b]pyrazin-6-yl)-3-azabicyclo[3.1.0]hexan-6-yl)-5-phenyl-1,3,4-thiadiazole] | 10 to 50 |
| FC(F)(F)Oc1ccccc1-c1nnc(C2(F)CCCN(c3cncc(-c4nncs4)n3)C2)s1 (centres unmarked) [Compound 29, 2-(1-(6-(1,3,4-Thiadiazol-2-yl)pyrazin-2-yl)-3-fluoropiperidin-3-yl)-5-(2-(trifluoromethoxy)phenyl)-1,3,4-thiadiazole] | 10 to 50 |

Further lines, results first:

| EC50 [µM] | SMILES |
| --- | --- |
| 10 to 50 | c1ccc(-c2nnc(C3CCCN(c4cncc(-c5nncs5)n4)C3)s2)cc1 (centres unmarked) [Compound 1, 2-[3-(5-phenyl-1,3,4-thiadiazol-2-yl)piperidin-1-yl]-6-(1,3,4-thiadiazol-2-yl)pyrazine] |
| 10 to 50 | FC(F)Cn1ncc2ncc(N3CCCC(c4nnc(-c5cccc(C(F)(F)F)n5)s4)C3)nc21 (centres unmarked) [Compound 2, 2-(5-{1-[1-(2,2-difluoroethyl)pyrazolo[3,4-b]pyrazin-6-yl]piperidin-3-yl}-1,3,4-thiadiazol-2-yl)-6-(trifluoromethyl)pyridine] |
| 10 to 50 | CCn1ccc2ncc(N3CCCC(c4nnc(-c5ccccc5)s4)C3)nc21 (centres unmarked) [Compound 3, 2-(1-(5-ethyl-5H-pyrrolo[2,3-b]pyrazin-3-yl)piperidin-3-yl)-5-phenyl-1,3,4-thiadiazole] |
| 10 to 50 | Fc1ccccc1-c1nnc(C2CCCN(c3cnc4ccccc4n3)C2)s1 (centres unmarked) [Compound 4, 2-(2-fluorophenyl)-5-(1-(quinoxalin-2-yl)piperidin-3-yl)-1,3,4-thiadiazole] |
| < 10 | FC(F)Cn1ncc2ncc(N3CCCC(c4nnc(-c5ccnc(C(F)(F)F)c5)s4)C3)nc21 (centres unmarked) [Compound 5, 2-(1-(1-(2,2-difluoroethyl)-1H-pyrazolo[3,4-b]pyrazin-6-yl)piperidin-3-yl)-5-(2-(trifluoromethyl)pyridin-4-yl)-1,3,4-thiadiazole] |
| 10 to 50 | FC(F)(F)Cn1ncc2ncc(N3CCCC(F)(c4nnc(-c5cccc(C(F)(F)F)n5)s4)C3)nc21 (centres unmarked) [Compound 6, 2-(3-Fluoro-1-(1-(2,2,2-trifluoroethyl)-1H-pyrazolo[3,4-b]pyrazin-6-yl)piperidin-3-yl)-5-(6-(trifluoromethyl)pyridin-2-yl)-1,3,4-thiadiazole] |
| 10 to 50 | FC(F)Cn1ncc2ncc(N3CCCC(c4nnc(-c5cccnc5C(F)(F)F)s4)C3)nc21 (centres unmarked) [Compound 7, 2-(1-(1-(2,2-Difluoroethyl)-1H-pyrazolo[3,4-b]pyrazin-6-yl)piperidin-3-yl)-5-(2-(trifluoromethyl)pyridin-3-yl)-1,3,4-thiadiazole] |
| 10 to 50 | FC(F)(F)c1cccc(-c2nnc(C3(F)CCCN(c4cncc(-c5nncs5)n4)C3)s2)n1 (centres unmarked) [Compound 8, 2-(3-Fluoro-3-{5-[6-(trifluoromethyl)pyridin-2-yl]-1,3,4-thiadiazol-2-yl}piperidin-1-yl)-6-(1,3,4-thiadiazol-2-yl)pyrazine] |
| < 10 | FC(F)Cn1ncc2ncc(N3CCCC(c4nnc(-c5ccccc5)s4)C3)nc21 (centres unmarked) [Compound 19, 2-(1-(1-(2,2-Difluoroethyl)-1H-pyrazolo[3,4-b]pyrazin-6-yl)piperidin-3-yl)-5-phenyl-1,3,4-thiadiazole] |
| < 10 | CCn1cnc2ncc(N3CCCC(c4nnc(-c5ccccc5)s4)C3)nc21 (centres unmarked) [Compound 20, 2-(1-(1-Ethyl-1H-imidazo[4,5-b]pyrazin-6-yl)piperidin-3-yl)-5-phenyl-1,3,4-thiadiazole] |
| < 10 | FC(F)Cn1ncc2ncc(N3CCCC(c4nnc(-c5ccc(C(F)(F)F)nc5)s4)C3)nc21 (centres unmarked) [Compound 21, 2-(1-(1-(2,2-Difluoroethyl)-1H-pyrazolo[3,4-b]pyrazin-6-yl)piperidin-3-yl)-5-(6-(trifluoromethyl)pyridin-3-yl)-1,3,4-thiadiazole] |
| < 10 | FC(F)(F)Oc1ccccc1-c1nnc(C2CCCN(c3cncc(-c4nncs4)n3)C2)s1 (centres unmarked) [Compound 22, 2-(1-(6-(1,3,4-thiadiazol-2-yl)pyrazin-2-yl)piperidin-3-yl)-5-(2-(trifluoromethoxy)phenyl)-1,3,4-thiadiazole] |
| < 10 | FC(F)(F)c1cccc(-c2nnc(C3(F)CCCN(c4cnc5cnn(CC6COC6)c5n4)C3)s2)n1 (centres unmarked) [Compound 27, 2-(3-Fluoro-1-(1-(oxetan-3-ylmethyl)-1H-pyrazolo[3,4-b]pyrazin-6-yl)piperidin-3-yl)-5-(6-(trifluoromethyl)pyridin-2-yl)-1,3,4-thiadiazole] |
